Data: PubChem BioAssay AID2060355 (Molecular Pharmacology Branch, DTP, NCI, 2025)

System: 485368-065-R4-J2-PDC spheroids with HUVEC/MSC, viability
Test: Anticancer human tumor 485368-065-R4-J2-PDC patient-derived pancreatic carcinoma cell line growth inhibition [TAK]
Conditions: for IC50: curve of first compound; for viability, T/C: stronger effect = lower value
From the text: Combinatorial screen of targeted agents with TAK-243 and ipatasertib in multi-cell type tumor spheroids
A high-throughput screen of multi-cell type tumor spheroids was designed to identify active combinations of targeted small molecules and TAK-243 or ipatasertib. Complex spheroids include a stromal component modeled by human endothelial cells (HUVEC) and fibroblasts modeled by human mesenchymal stem cells (MSCs). The concentration ranges selected for each drug and investigational agent were based upon clinically achievable concentrations if the clinical Cmax of the agent was known.
Compounds. The drugs and investigational agents: TAK-243 (785004), ipatasertib (767898), everolimus (733504), selumetinib (741078), bortezomib (756655), trametinib (758246), ixazomib (758254), vemurafenib (761431), dabrafenib (764134), sapanisertib (764658), alpelisib (765974), and copanlisib (816437), were obtained from the National Cancer Institute (NCI) Developmental Therapeutics Program Chemical Repository. The FDA-approved anticancer drug set is available from the NCI Developmental Therapeutics Program. […] The stock solutions were prepared in dimethyl sulfoxide (DMSO, Sigma-Aldrich, St. Louis, MO, cat. D2650) at 800-fold the tested concentration and stored at -70 degrees C prior to their use. All drugs and investigational agents were tested over a range starting from a high concentration at or near the clinical Cmax and decreasing in half-log increments. If the clinical Cmax for an agent had not been determined, the highest concentration tested was 10 microM.
NCI60 Cell Culture. NCI60 cell lines were obtained from the NCI Developmental Therapeutics Program Tumor Repository. For each lot of cells, the Repository performed Applied Biosystems AmpFLSTR Identifiler testing with PCR amplification to confirm consistency with the published Identifier STR profile for each cell line. Cells were kept in continuous culture for no more than 20 passages. The optimal seeding densities for each of the cell lines at each time point assessed were determined prior to performing the concentration response studies. Briefly, the NCI60 human tumor lines were grown as monolayers in RPMI 1640 medium supplemented with 10% FBS and 2 mmol/L L-glutamine.
An additional 2 lines were from the NCI60 cell line panel including melanomas, MALME-3M and SK-MEL-2. Pooled donor human umbilical vein endothelial cells (HUVEC, Lonza, cat. CC-2519) and human mesenchymal stem cells (hMSC, Lonza, cat. PT-2501) were purchased from Lonza (Walkersville, MD).
PDMR cell lines were grown in complete medium (DC medium): Dulbecco's modified Eagle's medium (DMEM)/F12 supplemented with 5% fetal bovine serum (FBS), 2 mM L-glutamine, 100 U/mL penicillin and 100 µg/ml streptomycin, 0.4 µg/ml hydrocortisone, 10 ng/ml epidermal growth factor (EGF) recombinant human protein, 24 µg/mL adenine, and 0.1 mg/mL primocin. During culture from frozen stock vials, PDMR cells were cultured in the same medium containing 10 µM Y-27632 (see Table 3). The PDCs were cultured in complete DMEM/F12 media without 10 microM Y-27632 dihydrochloride for at least two passages prior to the screen. The pooled donor HUVEC and hMSC were cultured in endothelial cell growth medium 2 (PromoCell, Heidelberg, Germany, cat. C-22011) and mesenchymal stem cell growth medium 2 (PromoCell, cat. C-28009), respectively. For all experiments, HUVEC and hMSC were used at passages </=5.
For the pre-screen, cell seeding densities were determined from a titration spanning the range from 5,000 to 313 cells per well. The mct-spheroids including 60% malignant cells, 25% HUVEC and 15% MSC dispensed as a mixture into U-bottom Ultra-Low Attachment 384-well plates (Corning, NY)
High-throughput Drug Combination Screening.
Prior to their inoculation into 384-well plates, malignant cells, HUVEC, and hMSC were removed from T flasks using TrypLE express (Thermo Fisher Scientific, cat. 12605036) and harvested by centrifugation for 5 min at 233 x g. […]

[1] = second compound 0.3 µM, first compound 0.0316 µM
[2] = second compound 0.3 µM, first compound 0.1 µM
[3] = second compound 0.3 µM, first compound 0.316 µM
[4] = second compound 0.3 µM, first compound 1 µM
[5] = second compound 0.3 µM, first compound 3.16 µM
[6] = second compound 0.3 µM, first compound 10 µM
[7] = second compound 0.949 µM, first compound 0.0316 µM
[8] = second compound 0.949 µM, first compound 0.1 µM
[9] = second compound 0.949 µM, first compound 0.316 µM
[10] = second compound 0.949 µM, first compound 1 µM
[11] = second compound 0.949 µM, first compound 3.16 µM
[12] = second compound 0.949 µM, first compound 10 µM
[13] = second compound 3 µM, first compound 0.0316 µM
[14] = second compound 3 µM, first compound 0.1 µM
[15] = second compound 3 µM, first compound 0.316 µM
[16] = second compound 3 µM, first compound 1 µM
[17] = second compound 3 µM, first compound 3.16 µM
[18] = second compound 3 µM, first compound 10 µM
[19] = second compound 9.49 µM, first compound 0.0316 µM
[20] = second compound 9.49 µM, first compound 0.1 µM
[21] = second compound 9.49 µM, first compound 0.316 µM
[22] = second compound 9.49 µM, first compound 1 µM
[23] = second compound 9.49 µM, first compound 3.16 µM
[24] = second compound 9.49 µM, first compound 10 µM
[25] = second compound 30 µM, first compound 0.0316 µM
[26] = second compound 30 µM, first compound 0.1 µM
[27] = second compound 30 µM, first compound 0.316 µM
[28] = second compound 30 µM, first compound 1 µM
[29] = second compound 30 µM, first compound 3.16 µM
[30] = second compound 30 µM, first compound 10 µM
[31] = second compound 0.3 µM, first compound 0.000316 µM
[32] = second compound 0.3 µM, first compound 0.001 µM
[33] = second compound 0.3 µM, first compound 0.00316 µM
[34] = second compound 0.3 µM, first compound 0.01 µM
[35] = second compound 0.949 µM, first compound 0.000316 µM
[36] = second compound 0.949 µM, first compound 0.001 µM
[37] = second compound 0.949 µM, first compound 0.00316 µM
[38] = second compound 0.949 µM, first compound 0.01 µM
[39] = second compound 3 µM, first compound 0.000316 µM
[40] = second compound 3 µM, first compound 0.001 µM
[41] = second compound 3 µM, first compound 0.00316 µM
[42] = second compound 3 µM, first compound 0.01 µM
[43] = second compound 9.49 µM, first compound 0.000316 µM
[44] = second compound 9.49 µM, first compound 0.001 µM
[45] = second compound 9.49 µM, first compound 0.00316 µM
[46] = second compound 9.49 µM, first compound 0.01 µM
[47] = second compound 30 µM, first compound 0.000316 µM
[48] = second compound 30 µM, first compound 0.001 µM
[49] = second compound 30 µM, first compound 0.00316 µM
[50] = second compound 30 µM, first compound 0.01 µM
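Note: spheroids exposed to compounds for seven days before readout.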
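Throughout, for viability, T/C: 100% = DMSO vehicle control wells.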

CC(C)(C)c1nc(-c2cccc(NS(=O)(=O)c3c(F)cccc3F)c2F)c(-c2ccnc(N)n2)s1 + CC(C)NCC(C(=O)N1CCN(c2ncnc3c2C(C)CC3O)CC1)c1ccc(Cl)cc1
IC50 (second compound 0.3 µM): 2660 nM | IC50 (second compound 0.949 µM): 589 nM | IC50 (second compound 3 µM): 432 nM | IC50 (second compound 9.49 µM): 353 nM | IC50 (second compound 30 µM): 305 nM | viability, T/C [1]: 104% | viability, T/C [2]: 92.8% | viability, T/C [3]: 71.8% | viability, T/C [4]: 52.9% | viability, T/C [5]: 50.4% | viability, T/C [6]: 47.8% | viability, T/C [7]: 101% | viability, T/C [8]: 91.3% | viability, T/C [9]: 63.4% | viability, T/C [10]: 38.5% | viability, T/C [11]: 30.9% | viability, T/C [12]: 28.1% | viability, T/C [13]: 98.2% | viability, T/C [14]: 83% | viability, T/C [15]: 57.2% | viability, T/C [16]: 31.9% | viability, T/C [17]: 21.2% | viability, T/C [18]: 18% | viability, T/C [19]: 93.4% | viability, T/C [20]: 80.2% | viability, T/C [21]: 52.5% | viability, T/C [22]: 28.3% | viability, T/C [23]: 18.5% | viability, T/C [24]: 17.5% | viability, T/C [25]: 77.2% | viability, T/C [26]: 69.9% | viability, T/C [27]: 49.8% | viability, T/C [28]: 24.8% | viability, T/C [29]: 16.4% | viability, T/C [30]: 15.3%

CC(C)CC(NC(=O)CNC(=O)c1cc(Cl)ccc1Cl)B1OC(=O)CC(CC(=O)O)(C(=O)O)O1 (stereo not given) + CC(C)NCC(C(=O)N1CCN(c2ncnc3c2C(C)CC3O)CC1)c1ccc(Cl)cc1
IC50 (second compound 0.3 µM): 37.7 nM | IC50 (second compound 0.949 µM): 31.3 nM | IC50 (second compound 3 µM): 25.6 nM | IC50 (second compound 9.49 µM): 24.8 nM | IC50 (second compound 30 µM): 19.7 nM | viability, T/C [31]: 89.7% | viability, T/C [32]: 93.9% | viability, T/C [33]: 98.7% | viability, T/C [34]: 106% | viability, T/C [1]: 56.7% | viability, T/C [2]: 12.8% | viability, T/C [35]: 98.4% | viability, T/C [36]: 99% | viability, T/C [37]: 97.5% | viability, T/C [38]: 106% | viability, T/C [7]: 49.6% | viability, T/C [8]: 12.5% | viability, T/C [39]: 103% | viability, T/C [40]: 99.6% | viability, T/C [41]: 99.2% | viability, T/C [42]: 92.6% | viability, T/C [13]: 40.5% | viability, T/C [14]: 9.51% | viability, T/C [43]: 94.7% | viability, T/C [44]: 87.3% | viability, T/C [45]: 89.5% | viability, T/C [46]: 92.6% | viability, T/C [19]: 39% | viability, T/C [20]: 9.49% | viability, T/C [47]: 76.9% | viability, T/C [48]: 80.2% | viability, T/C [49]: 81% | viability, T/C [50]: 76.7% | viability, T/C [25]: 31.3% | viability, T/C [26]: 7.82%

CC(C)n1nc(-c2ccc3oc(N)nc3c2)c2c(N)ncnc21 + CC(C)NCC(C(=O)N1CCN(c2ncnc3c2C(C)CC3O)CC1)c1ccc(Cl)cc1
IC50 (second compound 0.3 µM): 58.5 nM | IC50 (second compound 0.949 µM): 29.3 nM | IC50 (second compound 3 µM): 20.8 nM | IC50 (second compound 9.49 µM): 10.1 nM | IC50 (second compound 30 µM): 6.33 nM | viability, T/C [31]: 95.7% | viability, T/C [32]: 88% | viability, T/C [33]: 90.6% | viability, T/C [34]: 89.7% | viability, T/C [1]: 56.5% | viability, T/C [2]: 44.4% | viability, T/C [35]: 98.6% | viability, T/C [36]: 99.3% | viability, T/C [37]: 91.4% | viability, T/C [38]: 66.7% | viability, T/C [7]: 51.2% | viability, T/C [8]: 40.3% | viability, T/C [39]: 97.8% | viability, T/C [40]: 94.4% | viability, T/C [41]: 81.4% | viability, T/C [42]: 62.5% | viability, T/C [13]: 42.7% | viability, T/C [14]: 34.5% | viability, T/C [43]: 91.9% | viability, T/C [44]: 86.1% | viability, T/C [45]: 75.2% | viability, T/C [46]: 49.4% | viability, T/C [19]: 36.8% | viability, T/C [20]: 32.5% | viability, T/C [47]: 73.1% | viability, T/C [48]: 69.3% | viability, T/C [49]: 57.6% | viability, T/C [50]: 45.3% | viability, T/C [25]: 31.4% | viability, T/C [26]: 25.7%

CCCS(=O)(=O)Nc1ccc(F)c(C(=O)c2c[nH]c3ncc(-c4ccc(Cl)cc4)cc23)c1F + CC(C)NCC(C(=O)N1CCN(c2ncnc3c2C(C)CC3O)CC1)c1ccc(Cl)cc1
IC50 (second compound 0.3 µM): > 100000 nM | IC50 (second compound 0.949 µM): > 100000 nM | IC50 (second compound 3 µM): 6760 nM | IC50 (second compound 9.49 µM): 6080 nM | IC50 (second compound 30 µM): 4180 nM | viability, T/C [3]: 107% | viability, T/C [4]: 101% | viability, T/C [5]: 93.5% | viability, T/C [6]: 50.3% | viability, T/C (second compound 0.3 µM, first compound 31.6 µM): 24.3% | viability, T/C (second compound 0.3 µM, first compound 100 µM): 80.8% | viability, T/C [9]: 103% | viability, T/C [10]: 100% | viability, T/C [11]: 85.7% | viability, T/C [12]: 40.8% | viability, T/C (second compound 0.949 µM, first compound 31.6 µM): 25.1% | viability, T/C (second compound 0.949 µM, first compound 100 µM): 85.1% | viability, T/C [15]: 101% | viability, T/C [16]: 99.5% | viability, T/C [17]: 78.1% | viability, T/C [18]: 34.7% | viability, T/C (second compound 3 µM, first compound 31.6 µM): 29.8% | viability, T/C (second compound 3 µM, first compound 100 µM): 19.4% | viability, T/C [21]: 96.7% | viability, T/C [22]: 95.6% | viability, T/C [23]: 77.4% | viability, T/C [24]: 28.8% | viability, T/C (second compound 9.49 µM, first compound 31.6 µM): 20.2% | viability, T/C (second compound 9.49 µM, first compound 100 µM): 14.8% | viability, T/C [27]: 84% | viability, T/C [28]: 83.8% | viability, T/C [29]: 62.7% | viability, T/C [30]: 10.1% | viability, T/C (second compound 30 µM, first compound 31.6 µM): 10.2% | viability, T/C (second compound 30 µM, first compound 100 µM): 9.85%
